The values that follow come from patent US6441021B1, “Sulfonated amino acid derivatives and metalloproteinase inhibitors containing the same” (Shionogi & Co., Ltd., priority 1996, dated 2002).

For one test, the target named is T1, MMP-9 (92 kDa, gelatinase B; type IV collagenase) (Homo sapiens, UniProt P14780).
T1 construct: endogenous in cells; enzyme purified from the conditioned medium
T1 sequence (P14780 107-707 limits assumed): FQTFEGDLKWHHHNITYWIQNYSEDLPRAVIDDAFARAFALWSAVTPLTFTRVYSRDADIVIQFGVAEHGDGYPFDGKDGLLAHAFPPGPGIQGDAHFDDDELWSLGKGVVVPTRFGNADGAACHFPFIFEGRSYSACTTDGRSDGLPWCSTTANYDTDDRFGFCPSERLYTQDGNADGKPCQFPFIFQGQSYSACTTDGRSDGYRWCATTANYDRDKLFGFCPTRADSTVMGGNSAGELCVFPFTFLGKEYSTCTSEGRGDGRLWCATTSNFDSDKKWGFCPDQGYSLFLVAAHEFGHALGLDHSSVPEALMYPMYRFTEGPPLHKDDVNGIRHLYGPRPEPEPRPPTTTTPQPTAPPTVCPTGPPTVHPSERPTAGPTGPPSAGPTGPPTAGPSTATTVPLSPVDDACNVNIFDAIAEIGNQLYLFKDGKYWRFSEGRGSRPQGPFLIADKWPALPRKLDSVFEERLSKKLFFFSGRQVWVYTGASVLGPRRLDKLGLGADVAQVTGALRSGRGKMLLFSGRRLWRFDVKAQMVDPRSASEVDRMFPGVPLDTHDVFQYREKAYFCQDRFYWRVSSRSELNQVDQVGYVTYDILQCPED
Briefly: Assay of type IV collagenase inhibitors: activated MMP-9 with type IV collagenase activity kit substrate, fluorescent intensity. The test is classed as biochemical.
Details: not given
On the procedure:
(1) Isolation and Purification of MMP-9 (92 kDa, Gelatinase B)
Type IV collagenase (MMP-9) was purified according to the methods descrived in the following literature.
Subsequently, activated MMP-9 was obtained by treating the pro-MMP-9 with trypsin.
(2) Assay Methods of Type IV Collagenase Inhibitors
Collagenase assay was performed using the activated MMP-9 described above and the substrate supplied in the type IV collagenase activity kit (YAGAI, inc.), according to the manufacturer's protocol. The following 4 assays are performed per compound (inhibitor).
(A) substrate (type IV collagenase), enzyme (MMP-9), inhibitor
(B) substrate (type IV collagenase), inhibitor
(C) substrate (type IV collagenase), enzyme (MMP-9)
(D) substrate (type IV collagenase)
According to the manufacturer's protocol, fluorescent intensity was measured and percent inhibition was determined by the following equation.
Inhibition (%)={1−(A−B)/(C−D)}×100
In general, IC50 refers to the concentration needed to halve the response being measured. A lower IC50 goes with greater potency in that assay. `COc1ccc(C(=O)Nc2ccc(S(=O)(=O)N[C@H](Cc3c[nH]c4ccccc34)C(=O)O)cc2)cc1` [Example 178]: half-maximal inhibition (IC50) required 25.2 nM.
In turn, `O=C(Nc1ccc(S(=O)(=O)N[C@H](Cc2c[nH]c3ccccc23)C(=O)O)cc1)c1ccc([N+](=O)[O-])cc1` [Example 180] had an IC50 of 45 nM.
The same measure, in the same setting: the result for `CN(C)c1ccc(C(=O)Nc2ccc(S(=O)(=O)N[C@H](Cc3c[nH]c4ccccc34)C(=O)O)cc2)cc1` [Example 181] reads 53.9 nM; that for `Cc1ccc(C(=O)Nc2ccc(S(=O)(=O)N[C@H](Cc3c[nH]c4ccccc34)C(=O)O)cc2)cc1` [Example 182], 5.9 nM; that for `CSc1ccc(C(=O)Nc2ccc(S(=O)(=O)N[C@H](Cc3c[nH]c4ccccc34)C(=O)O)cc2)cc1` [Example 184], 3.25 nM.
Same read-out and setting: the result for `O=C(Nc1ccc(S(=O)(=O)N[C@H](Cc2c[nH]c3ccccc23)C(=O)O)cc1)c1ccc(F)cc1` [Example 185] reads 42.2 nM; that for `CC(C)[C@@H](NS(=O)(=O)c1ccc(NC(=O)c2ccc(-c3ccccc3)cc2)cc1)C(=O)O` [Example 195], 1100 nM.
Turning to `Cc1ccc(C(=O)Nc2ccc(S(=O)(=O)N[C@@H](C(=O)O)C(C)C)cc2)cc1` [Example 196], the IC50 was found to be 57.3 nM.
Molecule `CC(C)[C@@H](NS(=O)(=O)c1ccc(NC(=O)c2ccccc2)cc1)C(=O)O` [Example 199] registered an IC50 of 2060 nM.
The same measure, in the same setting: the value for `COc1ccc(C(=O)Nc2ccc(S(=O)(=O)N[C@@H](C(=O)O)C(C)C)cc2)cc1` [Example 200] was 173 nM; that for `CC(C)[C@@H](NS(=O)(=O)c1ccc(NC(=O)c2ccc([N+](=O)[O-])cc2)cc1)C(=O)O` [Example 201] was 252 nM.
In the case of `COc1ccc(C(=O)Nc2ccc(S(=O)(=O)N[C@@H](C(=O)O)C(C)(C)C)cc2)cc1` [Example 203], the IC50 stood at 173 nM.
In turn, `O=C(O)[C@@H](Cc1c[nH]c2ccccc12)NS(=O)(=O)c1ccc(-c2nnn(-c3ccccc3)n2)cc1` [Example 210] showed an IC50 of 24 nM.
With `O=C(O)C(Cc1cccc2ccccc12)NS(=O)(=O)c1ccc(-c2nnn(-c3ccccc3)n2)cc1` (centres unmarked) [Example 218], the IC50 is 744 nM.
In the case of `O=Cn1cc(C[C@@H](NS(=O)(=O)c2ccc(-c3nnn(-c4ccccc4)n3)cc2)C(=O)O)c2ccccc21` [Example 219], the IC50 came out at 574 nM.
Regarding `CCC(C)[C@@H](NS(=O)(=O)c1ccc(-c2nnn(-c3ccc(OC)cc3)n2)cc1)C(=O)O` (some centres unmarked) [Example 222], the IC50 came to 78 nM.
Turning to `CC(C)[C@@H](NS(=O)(=O)c1ccc(-c2nnn(-c3ccc(Br)cc3)n2)cc1)C(=O)O` [Example 225], inhibition was half-maximal at 12.2 nM (IC50).
The molecule `O=C(O)[C@@H](Cc1ccccc1)NS(=O)(=O)c1ccc(-c2nnn(-c3ccc(Br)cc3)n2)cc1` [Example 228] yielded an IC50 of 106 nM.

Still in this test, the particulars now being: activated MMP-9, type IV collagenase activity kit substrate, fluorescent intensity; concentration at which percent inhibition reaches 50%.
Turning to `O=C(O)C(Cc1c[nH]c2ccc(F)cc12)NS(=O)(=O)c1ccc(-c2ccccc2)cc1` (racemic) [Example 1a-1-18], the IC50 came out at 500 nM.
With `Cc1ccc2[nH]cc(CC(NS(=O)(=O)c3ccc(Oc4ccccc4)cc3)C(=O)O)c2c1` (racemic) [Example 1a-1-65], the midpoint of inhibition, the IC50, lay at 291 nM.
As to `O=C(NO)C(Cc1cscn1)NS(=O)(=O)c1ccc(-c2ccccc2)cc1` (racemic) [Example 1b-1-2], the IC50 was found to be 40 nM.
As for `Cc1ccc2[nH]cc(CC(NS(=O)(=O)c3ccc(-c4ccccc4)cc3)C(=O)NO)c2c1` (racemic) [Example 1b-1-17], the IC50 turned out to be 20.3 nM.
Molecule `O=C(O)[C@@H](Cc1ccccc1)NS(=O)(=O)c1ccc(-c2ccccc2)cc1` [Example 1a-1-1] returned an IC50 of 240 nM.
Regarding `O=C(O)[C@@H](Cc1c[nH]c2ccccc12)NS(=O)(=O)c1ccc(-c2ccc(F)cc2)cc1` [Example 1a-1-41], the IC50 turned out to be 312 nM.
`CC(C)[C@@H](NS(=O)(=O)c1ccc(-c2ccccc2)cc1)C(=O)O` [Example 1a-1-43] gave an IC50 of 625 nM.
With `CC(C)[C@@H](NS(=O)(=O)c1ccc(-c2ccc(C(C)(C)C)cc2)cc1)C(=O)O` [Example 1a-1-44], the IC50 worked out at 1910 nM.
On the same count and under the same terms, the value for `CC(C)[C@@H](NS(=O)(=O)c1ccc(-c2ccc(-c3ccccc3)cc2)cc1)C(=O)O` [Example 1a-1-45] was 40 nM; that for `CC(C)[C@@H](NS(=O)(=O)c1ccc(-c2ccc(C(F)(F)F)cc2)cc1)C(=O)O` [Example 1a-1-46] was 1120 nM; that for `CC(C)[C@@H](NS(=O)(=O)c1ccc(-c2ccc(F)cc2)cc1)C(=O)O` [Example 1a-1-48] was 1150 nM.
`COc1ccc(-c2ccc(S(=O)(=O)N[C@H](Cc3ccccc3)C(=O)O)cc2)cc1` [Example 1a-1-50] came in with an IC50 of 553 nM.
In turn, `CSc1ccc(-c2ccc(S(=O)(=O)N[C@H](Cc3ccccc3)C(=O)O)cc2)cc1` [Example 1a-1-54] yielded an IC50 of 75 nM.
`CSc1ccc(-c2ccc(S(=O)(=O)N[C@@H](C(=O)O)C(C)C)cc2)cc1` [Example 1a-1-55] gave an IC50 of 39.8 nM.
The molecule `O=C(O)[C@@H](Cc1ccccc1)NS(=O)(=O)c1ccc(Oc2ccccc2)cc1` [Example 1a-1-60] yielded an IC50 of 1310 nM.
As to `O=C(O)[C@@H](Cc1c[nH]c2ccccc12)NS(=O)(=O)c1ccc(Oc2ccccc2)cc1` [Example 1a-1-61], inhibition was half-maximal at 247 nM (IC50).
Molecule `O=C(NO)[C@@H](Cc1ccccc1)NS(=O)(=O)c1ccc(-c2ccccc2)cc1` [Example 1b-1-1] returned an IC50 of 30 nM.
`O=C(NO)[C@@H](Cc1ccccc1)NS(=O)(=O)c1ccc(C(F)(F)F)cc1` [Example 1b-1-10] displayed an IC50 of 2100 nM.
Turning to `CN(C)c1cccc2c(S(=O)(=O)N[C@H](Cc3ccccc3)C(=O)NO)cccc12` [Example 1b-1-11], the midpoint of inhibition, the IC50, lay at 1700 nM.
Same read-out and setting: the result for `O=C(NO)[C@@H](Cc1ccccc1)NS(=O)(=O)c1ccc(O)cc1` [Example 1b-1-24] reads 200 nM; that for `O=C(NO)[C@@H](Cc1ccccc1)NS(=O)(=O)c1ccc([N+](=O)[O-])cc1` [Example 1b-1-27], 3000 nM; that for `O=C(NO)[C@@H](Cc1c[nH]c2ccccc12)NS(=O)(=O)c1ccc(-c2ccccc2)cc1` [Example 1b-1-33], 5 nM.
With `O=C(NO)[C@@H](Cc1ccccc1)NS(=O)(=O)c1ccc(Oc2ccccc2)cc1` [Example 1b-1-60], half-maximal inhibition (IC50) required 1.2 nM.
With `O=C(NO)[C@H](Cc1c[nH]c2ccccc12)NS(=O)(=O)c1ccc(Oc2ccccc2)cc1` [Example 1b-1-62], the IC50 was found to be 3500 nM.
As to `CC(C)[C@@H](NS(=O)(=O)c1ccc(Oc2ccccc2)cc1)C(=O)NO` [Example 1b-1-63], it took 0.39 nM to reach half-maximal inhibition (IC50).

The test is the same for the next values; noted with them: inhibition of type IV collagenase (MMP-9), concentration at which percent inhibition reaches 50%.
Take `COc1ccc(-c2ccc(S(=O)(=O)N[C@H](Cc3ccccc3)C(=O)O)s2)cc1` [1a-3-10]: the midpoint of inhibition, the IC50, lay at 8.3 nM.
Molecule `O=C(O)[C@@H](Cc1c[nH]c2ccccc12)NS(=O)(=O)c1ccc(-c2nc3ccccc3s2)cc1` [Example 1a-1-83] registered an IC50 of 1770 nM.
The molecule `CN(C)c1ccc(N=Nc2ccc(S(=O)(=O)N[C@H](Cc3ccccc3)C(=O)O)cc2)cc1` [Example 1a-1-86] displayed an IC50 of 350 nM.
`O=C(O)[C@@H](Cc1c[nH]c2ccccc12)NS(=O)(=O)c1ccc(C#Cc2ccccc2)cc1` [Example 1a-2-2]: the IC50 turned out to be 237 nM.
For the molecule `O=C(O)[C@@H](Cc1c[nH]c2ccccc12)NS(=O)(=O)c1ccc(C#Cc2ccc([N+](=O)[O-])cc2)cc1` [Example 1a-2-7], it took 69.9 nM to reach half-maximal inhibition (IC50).
The molecule `Nc1ccc(C#Cc2ccc(S(=O)(=O)N[C@H](Cc3c[nH]c4ccccc34)C(=O)O)cc2)cc1` [Example 1a-2-9] registered an IC50 of 57.7 nM.
Regarding `C#Cc1ccc(C#Cc2ccc(S(=O)(=O)N[C@H](Cc3c[nH]c4ccccc34)C(=O)O)cc2)cc1` [Example 1a-2-11], the IC50 amounted to 47.5 nM.
The molecule `CC(C)[C@@H](NS(=O)(=O)c1ccc(C#Cc2ccc(F)cc2)cc1)C(=O)O` [Example 1a-2-19] showed an IC50 of 203 nM.
In turn, `COc1ccc(C#Cc2ccc(S(=O)(=O)N[C@@H](C(=O)O)C(C)(C)C)cc2)cc1` [Example 1a-2-20] showed an IC50 of 3410 nM.
In turn, `CCC(C)[C@@H](NS(=O)(=O)c1ccc(C#Cc2ccc(OC)cc2)cc1)C(=O)O` (some centres unmarked) [Example 1a-2-21] showed an IC50 of 3740 nM.
For `Cc1ccc(C#Cc2ccc(S(=O)(=O)N[C@H](Cc3ccccc3)C(=O)O)s2)cc1` [Example 1a-2-37], the midpoint of inhibition, the IC50, lay at 92.2 nM.
Same read-out and setting: the value for `O=C(O)[C@@H](Cc1ccccc1)NS(=O)(=O)c1ccc(C#Cc2ccc(F)cc2)s1` [Example 1a-2-38] was 222 nM; that for `Cc1ccc(-c2ccc(S(=O)(=O)N[C@H](Cc3c[nH]c4ccccc34)C(=O)O)s2)cc1` [Example 1a-3-3] was 10.8 nM.
On to `Cc1ccc(-c2ccc(S(=O)(=O)N[C@@H](C(=O)O)C(C)C)s2)cc1` [Example 1a-3-7], for which half-maximal inhibition (IC50) was put at 230 nM.
`CC(C)[C@@H](NS(=O)(=O)c1ccc(-c2ccc(F)cc2)s1)C(=O)O` [Example 1a-3-8] gave an IC50 of 1280 nM.
`CSc1ccc(-c2ccc(S(=O)(=O)N[C@@H](C(=O)O)C(C)C)s2)cc1` [Example 1a-3-9] displayed an IC50 of 14 nM.
As to `O=C(NO)[C@@H](Cc1ccccc1)NS(=O)(=O)c1ccc(N=Nc2ccccc2)cc1` [Example 1b-1-85], the half-inhibitory concentration (IC50) was determined as 13 nM.
As to `O=C(Nc1ccc(S(=O)(=O)N[C@H](Cc2c[nH]c3ccccc23)C(=O)O)cc1)c1ccc(Br)cc1` [Example 183], the IC50 came to 2.7 nM.
Regarding `O=C(Nc1ccc(S(=O)(=O)N[C@H](Cc2ccccc2)C(=O)O)cc1)c1ccncc1` [Example 205], the midpoint of inhibition, the IC50, lay at 4440 nM.
